Data on two molecules can be found in patent US11083197B2, “Herbicidal composition comprising chromone derivatives and a method for weed control” (INVESTIGACIONES BIOLÓGICAS EN AGROQUÍMICOS ROSARIO S.A., priority 2015, dated 2021).

Read-outs that look alike come from different tables or passages of the source.

For one test, the system named is lettuce (Lactuca sativa). As to the kind of experiment: Germination / dose-response bioassay with lettuce. Particulars: for Phytotoxicity at day 7, Lettuce: 1 mM, 24-well plates, rating scale of 0 to 5; for IC50 / inhibition at 1000 µg/mL: lettuce; for IC50: 7 days; for inhibition at 1000 µg/mL: 1 mg/mL, day 7; for lettuce germination: fractions at 1 mg/mL. Format: in vivo. How it is done:
(§1) DCM extract of flowers of A. visnaga (1.6 g) was divided in two 800 mg halves and each one was subjected to column chromatography using an Isolera One system (Biotage), equipped with UV detector (302 and 365 nm) and automatic fraction collector. Separation was performed by normal-phase chromatography column using a SNAP Cartridge KP-Sil (37×157 mm, 50 μm irregular silica, 100 g, Biotage) and a pre-packaged SNAP Samplet Cartridge KP-Sil (37×17 mm, Biotage). A full gradient of hexane:ethyl acetate was used for elution, from 100:0 to 0:100 over 3000 ml. Flow was 40 ml/min and 25 ml fractions were collected. Equal fractions were combined based on similarities on their TLC and chromatogram profiles providing nineteen fractions named I to XIX. All fractions were evaluated for their phytotoxicity on germination bioassay of lettuce (L. sativa) and creeping bentgrass (A. stolonifera).
(§2) A filter paper and 5 lettuce or 10 mg of creeping bentgrass seeds were placed in each well of a 24-well plate. Stock solutions (10×) of test compounds were prepared in acetone. 180 μl of distilled water were added to each well together with 20 μl of stock solution or acetone in solvent control. Final concentration of acetone was 10% v/v. Plates were sealed with Parafilm, and incubated at 26° C. in a growth chamber set at 173 μmol m^−2 s^−1 continuous photosynthetically active radiation. Phytotoxic activity was qualitatively evaluated by visually comparing germination in each well with solvent control at 7 days. A qualitative estimation of phytotoxicity was obtained by using a rating scale of 0 to 5, where 0 was no effect, and 5 was no germination of seeds. This procedure was also used for testing the phytotoxicity of pure compounds on ryegrass. On this experiment 12-well plates were used. 10 seeds were placed per well and final volume was 300 μl in each one. During dose-response bioassays used for IC50 determination, germination percentage and length of plants were measured at 7 days in order to determine the concentration required for 50% germination and growth inhibition (IC50). All experiments were done in triplicate.
(§3) Using method described in Example 1, compounds of Formula III and IV above were tested against lettuce and ryegrass.
(§4) The percentage of germination and length of plants were determined at 7 days. Data represents means of three replicates±SD. The IC50 values, for both germination and growth inhibition by compounds III and IV on lettuce and ryegrass, were obtained from estimated parameters in the regression curves.
(§5) Statistical Analysis. Data from dose-response experiments were analyzed by a log-logistic model^37-38 using the dose-response curve module^39 of R software version 2.2.1.^40 Concentrations required for 50% germination or growth inhibition relative to control (IC50 values) were obtained from estimated parameters in the regression curves. The standard error (SE) of each estimation is provided. Data from phytotoxicity bioassays in the laboratory and greenhouse, ROS and cell death quantifications were analyzed by ANOVA using the InfoStat statistical software version 2015,^41 and Scheffe's test was employed to compare the means at α=0.05.

In test [1] the test system is creeping bentgrass (A. stolonifera). The test can be described thus: Germination bioassay with creeping bentgrass. To be noted: for Phytotoxicity at day 7, Creeping bentgrass: 1 mM, 24-well plates, rating scale of 0 to 5; for inhibition at 1000 µg/mL: Agrostis stolonifera, 168 h, creeping bentgrass, 1 mg/mL, day 7; for creeping bentgrass germination: fractions at 1 mg/mL. The arrangement: key to Phytotoxicity at day 7, Creeping bentgrass: 0 = no effect; 5 = no growth or germination. Format: in vivo, Agrostis stolonifera. How it is done: as §1, §2

The subject of test [2] is ryegrass (Lolium multiflorum). As to the kind of experiment: Dose-response bioassay with ryegrass. The class given is in vivo. To be noted: 168 h, 7 days. The procedure:
as §2, §3, §4, §5

Test [3] deals with duckweed (Lemna paucicostata). The test can be described thus: Dose-response bioassay with duckweed. The class given is in vivo. To be noted: frond area increase between days 1 and 7, read-out: IC50 (μM) ± SE, duckweed growth inhibition. The procedure: Phytotoxic activity of compounds of formula III and IV above as evaluated on duckweed. Duckweed stocks were grown from a single colony consisting of a mother and two daughter fronds in a beaker on modified Hoagland media (Table 3 below). The medium was adjusted to pH 5.5 with 1 M NaOH and filtered through a 0.2 μm filter. Each well of non-pyrogenic polystyrene sterile 6-well plates was filled with 4.950 ml of Hoagland media and, 50 μl of distilled water, 50 μl of acetone in solvent control or 50 μl of acetone containing the appropriate concentration of test compound. The final concentration of acetone was 1% v/v. Two, three-frond colonies from 4 to 5 d-old stock cultures were placed in each well. Plates were placed in an incubator with white light (94.2 μE m^−2 s^−1). Total frond area per well was recorded by the Scanalyzer (LemnaTec, Germany) image analysis system from days 0 to 7. Percentage of increase between days 1 and 7 was determined relative to baseline area at day zero.
Percentage of increase between days 1 and 7 was determined relative to baseline area at day zero. Data represents means of three replicates±SD.
as §5

Test [4] concerns lettuce. As to the kind of experiment: Postemergence bioassay with lettuce in Petri dishes. The class given is in vivo. Particulars: Lactuca sativa, post-emergence, day 6 (4 days after postemergence application), read-out: Average growth inhibition (%) as percentage of control; for inhibition at 500 µM: 0.50 mM; for inhibition at 1000 µM: 1.00 mM; for inhibition at 1500 µM: 1.50 mM. How it is done: Compounds of formula III and IV above were tested at different concentrations in a postemergence bioassay (in Petri dishes) against lettuce. Lettuce seeds were pre-incubated in Petri dishes with a filter paper and water for 2 days. After that, seedlings (15 mm approx.) were moved to a new Petri dish containing 4 mL of an aqueous solution of each compound or commercial herbicide. Plants length was measured at day 6 (4 days after postemergence application of the compounds). The results were compared to those obtained with acetochlor and glyphosate.
Plant length's axis starts in 15 mm because seeds were pre-incubated in water, so all seedlings were around 15 mm long at the beginning of the treatment.

The test system of test [5] is ryegrass, barnyardgrass, crabgrass, foxtail, millet, morningglory and velvetleaf. As to the kind of experiment: Pre-emergence bioassay in Petri dishes against different weeds. To be noted: 0.5 and 1.0 mM. The class given is in vivo. The procedure: Compounds of Formulas III and IV above were tested in a pre-emergence bioassay (in Petri dishes) against different weeds at 0.5 and 1.0 mM. The seeds of different weeds were placed in Petri dishes with a filter paper and 4 mL of an aqueous solution of each compound or commercial herbicide.
Plant length was measured at 7 days of incubation.

Test [6] has as its system lettuce. As to the kind of experiment: Phytotoxic effect on lettuce under different conditions of illumination. Particulars: 1 mM; light versus darkness; 7 days. The class given is in vivo, Lactuca sativa. How it is done: Bioassays were carried out with lettuce in Petri dishes using the commercial standards of each compound. Lettuce seeds were incubated with 4 mL of an aqueous solution of compounds or acetochlor at 1 mM. Lettuce growth was measured at 7 days of incubation.
The results of this test are shown in FIG. 14 where the Left column (diagonal stripes)=Light and the Right column (in black)=Darkness. Acetochlor was included as a reference of pre-emergent herbicide and to get the highest herbicidal effect, all compounds were tested at 1 mM. Data represent means of three replicates±SD. Different letters above the bars indicate significant differences between treatments (p<0.05).

[7] abbreviates: Lactuca sativa, 168 h, read-out: IC50(μM) ± SE to inhibit germination.
Where [8] appears, read: Lactuca sativa, 168 h, read-out: IC50(μM) ± SE to inhibit growth.
Where [9] appears, read: read-out: IC50(μM) ± SE to inhibit germination.
[10] abbreviates: read-out: IC50(μM) ± SE to inhibit growth.

As for `COc1c2occc2c(OC)c2c(=O)cc(C)oc12` [Formula III, 4,9-dimethoxy-7-methyl-5H-furo[3,2-g]chromen-5-one], the “Phytotoxicity at day 7, Lettuce” value in the test on lettuce (Lactuca sativa) is 3. Also, the IC50 with lettuce (Lactuca sativa) (setting [7]) amounted to 700 µM; in the test with lettuce (Lactuca sativa) (setting [8]) it was 110 µM; with lettuce (Lactuca sativa) (setting [9]), 701 ± 93 µM; in test [2] (setting [9]) it was 637 ± 112 µM; in test [2] (setting [10]) it was 244 ± 37 µM; in test [3] (Lemna aequinoctialis), 160 µM. In addition, the IC50 in test [3] came to 162 ± 29 µM. Also, the inhibition at 1000 µg/mL was found to be 100% in the test with lettuce (Lactuca sativa) (Lactuca sativa, 168 h) and 100% in test [1]. In addition, in the test with lettuce (Lactuca sativa), the lettuce germination entry is “completely inhibited”. Besides, the “Phytotoxicity at day 7, Creeping bentgrass” value in test [1] stood at 5. Besides, in test [1], the creeping bentgrass germination entry is “completely inhibited”. Besides, in the test with lettuce [4], the inhibition at 500 µM is 22%. Moreover, in the test on lettuce [4], the inhibition at 1000 µM is 85%. Further, the inhibition at 1500 µM in the test on lettuce [4] was determined as 91%. The “effect on growth and germination of different weeds” value in test [5] is on record as “strongly interfered”. Also, the “light dependence of phytotoxicity or herbicidal activity” value in the test on lettuce [6] is on record as “not a light-dependent process”.

As to `COc1c2ccoc2cc2oc(C)cc(=O)c12` [Formula IV, 4-methoxy-7-methyl-5H-furo[3,2-g]chromen-5-one], the “Phytotoxicity at day 7, Lettuce” value in the test on lettuce (Lactuca sativa) came to 3. Moreover, the IC50 worked out at 740 µM with lettuce (Lactuca sativa) (setting [7]); 170 µM with lettuce (Lactuca sativa) (setting [8]); 175 ± 16 µM in the test on lettuce (Lactuca sativa) (setting [10]); 502 ± 115 µM in test [2] (setting [9]); 214 ± 23 µM in test [2] (setting [10]); 120 µM in test [3] (Lemna aequinoctialis). Also, the IC50 in test [3] stood at 122 ± 28 µM. In addition, the inhibition at 1000 µg/mL was found to be 100% in the test on lettuce (Lactuca sativa) (Lactuca sativa, 168 h) and 100% in test [1]. In addition, the lettuce germination entry with lettuce (Lactuca sativa) is recorded as “completely inhibited”. The “Phytotoxicity at day 7, Creeping bentgrass” value in test [1] is listed as 5. In addition, the creeping bentgrass germination entry in test [1] is listed as “completely inhibited”. In the test on lettuce [4], the inhibition at 500 µM stood at 22%. The inhibition at 1000 µM in the test with lettuce [4] turned out to be 85%. Also, in the test with lettuce [4], the inhibition at 1500 µM was found to be 91%. For the same molecule, the “effect on growth and germination of different weeds” value in test [5] is given as “strongly interfered”. In the test with lettuce [6], the “light dependence of phytotoxicity or herbicidal activity” value is “not a light-dependent process”.

For orientation: IC50 means the concentration at which inhibition is half-maximal. The term inhibition denotes the change of the read-out against control, counted positive when it falls.
